Test results from article PMC7402526, “An in vitro quantitative systems pharmacology approach for deconvolving mechanisms of drug-induced, multilineage cytopenias” (PLoS Computational Biology, 2020).

Legend:
B cells (B-lin) = test: MLTA, B-lin: concentration-response and QSP model fit; format: cell-based, human; settings: Homo sapiens, B-cell, 144 h
Protocol: (§1) A custom optimized cytokine cocktail was developed using commercially available cytokines (Peprotech, New Jersey) to facilitate simultaneous multi-lineage differentiation and self-renewal of freeze-thawed primary human bone marrow-derived CD34+ cells in SFEM II media (cells and media from StemCell Technologies, Vancouver). Cultures were carried out in ultra-low attachment 96-well plates (Corning, New York) with test article added on day 0 and cultured at 37°C, 85% relative humidity, and 5% CO2 for six days before interrogating drug impact via 17-parameter flow cytometry.
(§2) The flow cytometry panel used to define hematopoietic subsets was composed of CD34-PECy7, CD90-PECY5, CD38-AF488, CD371-PE, CD45Ra-BV421, CD14-BV605, CD42b-AF647, CD10-PEDazzle594, CD235a-PerCPCy5.5 (BioLegend, California), CD15-BUV395, CD41a-APCH7, CD71-BV786 (BD Biosciences, California), and DAPI for dead cell exclusion (ThermoFisher, California). In short, Day 6 cells were harvested, FcR-blocked (FcR binding inhibitor, ThermoFisher), surface-stained, then analyzed in a buffer containing TruCount Control Beads using a BD LSR Fortessa SORP fitted with a high-throughput sampler (BD Biosciences, California). Data was analyzed in Diva 6.0.2 and exported to CSV where after all cell data was transformed to cell per mL then normalized on a per-donor basis to untreated control wells to determine drug impact.
(§3) Donor material was collected and cultured as described above. The number of replicate donor samples per drug ranged from 2–7 and varied per drug (S1 Table). Drug treatment was added at time 0 and cells were maintained in culture for 6 days. Concentrations tested for each drug compound are contained in S1 Table. Concentrations were selected to span a range that is clinically useful. Following treatment, cell populations were measured using flow cytometry. We extracted cell counts from flow cytometry data, normalized to bead counts, and corrected for well volume.
(§4) Each well was normalized to the average of six vehicle control wells. For drugs that were tested across multiple runs of the assay, vehicle-normalized donor data were pooled, and we used the average of these pooled data for further modeling. Normalized data used as model inputs are included in S1 Table.
(§5) We implemented drug effects using an Emax model for the drug’s effect on each cell type. The 13 maximum effect parameters (EmaxT,C) are unitless and can vary between 0 and 2 and where a subscript, C, represents one of the previously described 13 cell types. We adapted a traditional Emax model using the equations below. We interpreted EmaxT values less than or equal to one as anti-proliferative, and EmaxT values greater than one as indicating a cell-killing mechanism in addition to anti-proliferation. The relationships for these effects are included in the model using the following equations. Eq 2 describes the drug anti-proliferative effect in the net proliferation rate for a given cell type. Eq 3 describes the cell-killing EmaxCK effect.
(§6) Towards the estimation of mechanistic parameters, we considered different formulations: (a) weighting the objective value to prioritize fitting dead cells and (b) using regularization methodology to encourage a parsimonious solution. We assessed the contributions of these formulations using mean-squared error and goodness of fit plots for drugs with known mechanisms. […] Further, we used L1 regularization to penalize parameters […] to help identify a parsimonious set of parameters to explain drug effects.

[1] = tested on: hematopoietic stem cells (HSCs); test: Multi-lineage toxicity assay (MLTA), HSCs: concentration-response and QSP model fit; format: cell-based, human; set-up: EmaxAP,HSC / EmaxT,HSC / Emax_drug_HSC: unitless, 0–2; ≤1 anti-proliferative, >1 adds cell killing
Protocol: as §1, §2, §3, §4, §5, §6

granulocytes (Gran-lin) = test: MLTA, Gran: concentration-response and QSP model fit; format: cell-based, human; settings: Homo sapiens, 144 h
Protocol: as §1, §2, §3, §4, §5, §6

[2] = tested on: granulocyte-macrophage progenitor (GMPs); test: MLTA, GMPs: concentration-response and QSP model fit; format: cell-based, human; settings: Homo sapiens, 144 h
Protocol: as §1, §2, §3, §4, §5, §6

MK cells (MK-lin) = test: MLTA, MK: concentration-response and QSP model fit; format: cell-based, human; settings: Homo sapiens, 144 h
Protocol: as §1, §2, §3, §4, §5, §6

monocytes (monocyte-lin) = test: MLTA, Mono: concentration-response and QSP model fit; format: cell-based, human; settings: Homo sapiens, Monocyte, 144 h
Protocol: as §1, §2, §3, §4, §5, §6

[3] = tested on: lymphocyte progenitors (LymP); test: MLTA, LymP: concentration-response and QSP model fit; format: cell-based, human; settings: Homo sapiens, Lymphocyte, 144 h
Protocol: as §1, §2, §3, §4, §5, §6

[4] = tested on: total dead cells (totalDeadCells); test: MLTA, total dead cells concentration-response; format: cell-based; settings: Homo sapiens, 144 h, 6 days, normalized to vehicle control, read-out: total_dead normalized cell count
Protocol: as §1, §2, §3, §4

[5] = QSP model fit of 6-day MLTA data

- EC50 (B cells (B-lin); [5]): 69.2 nM
- EC50 [2, 5]: 37.3 nM
- EC50 (MK cells (MK-lin); [5]): 486 nM
- EC50 (monocytes (monocyte-lin); [5]): 46.2 nM
SMILES: CCN1CCN(Cc2ccc(Nc3ncc(F)c(-c4cc(F)c5nc(C)n(C(C)C)c5c4)n3)nc2)CC1 [abemaciclib]
- activity at 0.0002 µM (B cells (B-lin); dose 0.2 nM, 6 days, normalized to vehicle control, read-out: B-lin normalized cell count): 83.9%
- activity at 0.001 µM (B cells (B-lin); dose 1 nM, 6 days, normalized to vehicle control, read-out: B-lin normalized cell count): 104%
- activity at 0.005 µM (B cells (B-lin); dose 5 nM, 6 days, normalized to vehicle control, read-out: B-lin normalized cell count): 83.9%
- activity at 0.025 µM (B cells (B-lin); dose 25 nM, 6 days, normalized to vehicle control, read-out: B-lin normalized cell count): 50.8%
- activity at 0.1 µM (B cells (B-lin); dose 100 nM, 6 days, normalized to vehicle control, read-out: B-lin normalized cell count): 23.5%
- activity at 0.5 µM (B cells (B-lin); dose 500 nM, 6 days, normalized to vehicle control, read-out: B-lin normalized cell count): 4.07%
- activity at 2.5 µM (B cells (B-lin); dose 2500 nM, 6 days, normalized to vehicle control, read-out: B-lin normalized cell count): 0.0736%
- Emax (B cells (B-lin); parameter from QSP model fitting, read-out: Emax_drug_B): 64.9%
- EC50 ([1]; Homo sapiens, Hematopoietic stem cell, 144 h, QSP model fit of 6-day MLTA data): 111 nM
- activity at 0.0002 µM ([1]; Homo sapiens, Hematopoietic stem cell, 144 h, dose 0.2 nM, 6 days, normalized to vehicle control, read-out: HSCs normalized cell count): 89.3%
- activity at 0.001 µM ([1]; Homo sapiens, Hematopoietic stem cell, 144 h, dose 1 nM, 6 days, normalized to vehicle control, read-out: HSCs normalized cell count): 103%
- activity at 0.005 µM ([1]; Homo sapiens, Hematopoietic stem cell, 144 h, dose 5 nM, 6 days, normalized to vehicle control, read-out: HSCs normalized cell count): 98.4%
- activity at 0.025 µM ([1]; Homo sapiens, Hematopoietic stem cell, 144 h, dose 25 nM, 6 days, normalized to vehicle control, read-out: HSCs normalized cell count): 66.7%
- activity at 0.1 µM ([1]; Homo sapiens, Hematopoietic stem cell, 144 h, dose 100 nM, 6 days, normalized to vehicle control, read-out: HSCs normalized cell count): 25.9%
- activity at 0.5 µM ([1]; Homo sapiens, Hematopoietic stem cell, 144 h, dose 500 nM, 6 days, normalized to vehicle control, read-out: HSCs normalized cell count): 5.33%
- activity at 2.5 µM ([1]; Homo sapiens, Hematopoietic stem cell, 144 h, dose 2500 nM, 6 days, normalized to vehicle control, read-out: HSCs normalized cell count): 2.74%
- Emax ([1]; Homo sapiens, Hematopoietic stem cell, 144 h, parameter from QSP model fitting, read-out: Emax_drug_HSC): 91%
- EmaxAP,HSC ([1]; anti-proliferation component, min(1, EmaxT)): 0.910
- activity at 0.0002 µM (granulocytes (Gran-lin); dose 0.2 nM, 6 days, normalized to vehicle control, read-out: Gran normalized cell count): 101%
- activity at 0.001 µM (granulocytes (Gran-lin); dose 1 nM, 6 days, normalized to vehicle control, read-out: Gran normalized cell count): 107%
- activity at 0.005 µM (granulocytes (Gran-lin); dose 5 nM, 6 days, normalized to vehicle control, read-out: Gran normalized cell count): 91.3%
- activity at 0.025 µM (granulocytes (Gran-lin); dose 25 nM, 6 days, normalized to vehicle control, read-out: Gran normalized cell count): 34.6%
- activity at 0.1 µM (granulocytes (Gran-lin); dose 100 nM, 6 days, normalized to vehicle control, read-out: Gran normalized cell count): 9.12%
- activity at 0.5 µM (granulocytes (Gran-lin); dose 500 nM, 6 days, normalized to vehicle control, read-out: Gran normalized cell count): 1.99%
- activity at 2.5 µM (granulocytes (Gran-lin); dose 2500 nM, 6 days, normalized to vehicle control, read-out: Gran normalized cell count): 0.0882%
- Emax (granulocytes (Gran-lin); parameter from QSP model fitting, read-out: Emax_drug_Gran): 0.16%
- activity at 0.0002 µM ([2]; dose 0.2 nM, 6 days, normalized to vehicle control, read-out: GMPs normalized cell count): 89.7%
- activity at 0.001 µM ([2]; dose 1 nM, 6 days, normalized to vehicle control, read-out: GMPs normalized cell count): 108%
- activity at 0.005 µM ([2]; dose 5 nM, 6 days, normalized to vehicle control, read-out: GMPs normalized cell count): 93.6%
- activity at 0.025 µM ([2]; dose 25 nM, 6 days, normalized to vehicle control, read-out: GMPs normalized cell count): 50.4%
- activity at 0.1 µM ([2]; dose 100 nM, 6 days, normalized to vehicle control, read-out: GMPs normalized cell count): 29.2%
- activity at 0.5 µM ([2]; dose 500 nM, 6 days, normalized to vehicle control, read-out: GMPs normalized cell count): 5.84%
- activity at 2.5 µM ([2]; dose 2500 nM, 6 days, normalized to vehicle control, read-out: GMPs normalized cell count): 0.643%
- activity at 0.0002 µM (MK cells (MK-lin); dose 0.2 nM, 6 days, normalized to vehicle control, read-out: MK normalized cell count): 108%
- activity at 0.001 µM (MK cells (MK-lin); dose 1 nM, 6 days, normalized to vehicle control, read-out: MK normalized cell count): 99.5%
- activity at 0.005 µM (MK cells (MK-lin); dose 5 nM, 6 days, normalized to vehicle control, read-out: MK normalized cell count): 101%
- activity at 0.025 µM (MK cells (MK-lin); dose 25 nM, 6 days, normalized to vehicle control, read-out: MK normalized cell count): 84.2%
- activity at 0.1 µM (MK cells (MK-lin); dose 100 nM, 6 days, normalized to vehicle control, read-out: MK normalized cell count): 44.1%
- activity at 0.5 µM (MK cells (MK-lin); dose 500 nM, 6 days, normalized to vehicle control, read-out: MK normalized cell count): 8.35%
- activity at 2.5 µM (MK cells (MK-lin); dose 2500 nM, 6 days, normalized to vehicle control, read-out: MK normalized cell count): 0.557%
- Emax (MK cells (MK-lin); parameter from QSP model fitting, read-out: Emax_drug_MK): 6.8%
- activity at 0.0002 µM (monocytes (monocyte-lin); dose 0.2 nM, 6 days, normalized to vehicle control, read-out: Mon normalized cell count): 92.9%
- activity at 0.001 µM (monocytes (monocyte-lin); dose 1 nM, 6 days, normalized to vehicle control, read-out: Mon normalized cell count): 109%
- activity at 0.005 µM (monocytes (monocyte-lin); dose 5 nM, 6 days, normalized to vehicle control, read-out: Mon normalized cell count): 87%
- activity at 0.025 µM (monocytes (monocyte-lin); dose 25 nM, 6 days, normalized to vehicle control, read-out: Mon normalized cell count): 41.8%
- activity at 0.1 µM (monocytes (monocyte-lin); dose 100 nM, 6 days, normalized to vehicle control, read-out: Mon normalized cell count): 10.9%
- activity at 0.5 µM (monocytes (monocyte-lin); dose 500 nM, 6 days, normalized to vehicle control, read-out: Mon normalized cell count): 3.74%
- activity at 2.5 µM (monocytes (monocyte-lin); dose 2500 nM, 6 days, normalized to vehicle control, read-out: Mon normalized cell count): 0.588%
- Emax (monocytes (monocyte-lin); parameter from QSP model fitting, read-out: Emax_drug_Mono): 23.1%
- activity at 0.0002 µM ([3]; dose 0.2 nM, 6 days, normalized to vehicle control, read-out: LymP normalized cell count): 93.5%
- activity at 0.001 µM ([3]; dose 1 nM, 6 days, normalized to vehicle control, read-out: LymP normalized cell count): 99.4%
- activity at 0.005 µM ([3]; dose 5 nM, 6 days, normalized to vehicle control, read-out: LymP normalized cell count): 92.9%
- activity at 0.025 µM ([3]; dose 25 nM, 6 days, normalized to vehicle control, read-out: LymP normalized cell count): 38.9%
- activity at 0.1 µM ([3]; dose 100 nM, 6 days, normalized to vehicle control, read-out: LymP normalized cell count): 22.1%
- activity at 0.5 µM ([3]; dose 500 nM, 6 days, normalized to vehicle control, read-out: LymP normalized cell count): 22.3%
- activity at 2.5 µM ([3]; dose 2500 nM, 6 days, normalized to vehicle control, read-out: LymP normalized cell count): 7.46%
- Emax ([3]; parameter from QSP model fitting, read-out: Emax_drug_LymP): 0.16%
- activity at 0.0002 µM ([4]; dose 0.2 nM): 92%
- activity at 0.001 µM ([4]; dose 1 nM): 97.6%
- activity at 0.005 µM ([4]; dose 5 nM): 87.1%
- activity at 0.025 µM ([4]; dose 25 nM): 46.8%
- activity at 0.1 µM ([4]; dose 100 nM): 30.9%
- activity at 0.5 µM ([4]; dose 500 nM): 22%
- activity at 2.5 µM ([4]; dose 2500 nM): 34%
